From PubChem BioAssay (NCI)
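Each compound was tested at five concentrations against cells in 96-well plates for 48 hours. TGI: total growth inhibition.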

Assays:
Test in all cases: growth of human tumour cells (NCI), 48 h
[1] = test system: MALME-3M melanoma
[2] = test system: A549 NSCLC
[3] = test system: KM20L2 colon
[4] = test system: UACC-62 melanoma
[5] = test system: OVCAR-8 ovarian
[6] = test system: IGROV1 ovarian
[7] = test system: U251 CNS
[8] = test system: SK-OV-3 ovarian
[9] = test system: M19-MEL melanoma
[10] = test system: HL-60(TB) leukemia
[11] = test system: DMS 273 small cell lung
[12] = test system: SF-295 CNS
[13] = test system: NCI-H23 lung
[14] = test system: HOP-18 NSCLC
[15] = test system: ACHN renal
[16] = test system: DMS 114 small cell lung
[17] = test system: SNB-75 CNS
[18] = test system: SK-MEL-5 melanoma
[19] = test system: HOP-62 NSCLC
[20] = test system: HOP-92 NSCLC
[21] = test system: UACC-257 melanoma
[22] = test system: SK-MEL-28 melanoma
[23] = test system: CCRF-CEM leukemia
[24] = test system: HT29 colon
[25] = test system: CAKI-1 renal
[26] = test system: XF 498 CNS
[27] = test system: A498 renal
[28] = test system: RXF 393 renal
[29] = test system: SR leukemia
[30] = test system: TK-10 renal
[31] = test system: SW-620 colon
[32] = test system: EKVX NSCLC
[33] = test system: UO-31 renal
[34] = test system: HCT-116 colon
[35] = test system: MOLT-4 leukemia
[36] = test system: SK-MEL-2 melanoma
[37] = test system: M14 melanoma
[38] = test system: OVCAR-5 ovarian
[39] = test system: LXFL 529 NSCLC
[40] = test system: SN12C renal
[41] = test system: SNB-19 CNS
[42] = test system: NCI-H460 lung
[43] = test system: NCI-H226 lung
[44] = test system: SF-268 CNS
[45] = test system: OVCAR-4 ovarian
[46] = test system: 786-0 renal
[47] = test system: HCC-2998 colon
[48] = test system: HCT-15 colon
[49] = test system: OVCAR-3 ovarian
[50] = test system: NCI-H522 lung
[51] = test system: K-562 leukemia
[52] = test system: SF-539 CNS
[53] = test system: COLO 205 colon
[54] = test system: KM12 colon
[55] = test system: LOX IMVI melanoma
[56] = test system: DLD-1 colon

Work on `CC(C)(C)c1ccc(C(O)c2ccc(C(C)(C)C)cc2)cc1` yielded a TGI [1] of 30.4 µM, a TGI [2] of 27.2 µM and a TGI [3] of 32.5 µM. It also gave a TGI [4] of 30.2 µM, a TGI [5] of 29.2 µM and a TGI [6] of 30.6 µM. The TGI [7] was 25.8 µM, the TGI [8] was 27.8 µM and the TGI [9] was 26.9 µM. The TGI [10] was 35.6 µM, the TGI [11] was 25.9 µM and the TGI [12] was 27 µM. For the same molecule, the TGI [13] was 25.5 µM, the TGI [14] was 31.2 µM and the TGI [15] was 30.2 µM. The TGI [16] was 25.7 µM, the TGI [17] was 33.9 µM and the TGI [18] was 30.4 µM. For the same molecule, the TGI [19] was 30 µM, the TGI [20] was 25.2 µM and the TGI [21] was 34 µM. For the same molecule, the TGI [22] was 30.8 µM, the TGI [23] was 38.9 µM and the TGI [24] was 22.3 µM. The TGI [25] was 28.4 µM, the TGI [26] was 28.4 µM and the TGI [27] was 32.9 µM. The TGI [28] was 31.2 µM, the TGI [29] was 41.7 µM and the TGI [30] was 35.6 µM. The TGI [31] was 27.9 µM, the TGI [32] was 32.3 µM and the TGI [33] was 29.7 µM. For the same molecule, the TGI [34] was 24.5 µM, the TGI [35] was 39.2 µM and the TGI [36] was 29.4 µM. For the same molecule, the TGI [37] was 28.7 µM, the TGI [38] was 30.5 µM and the TGI [39] was 29 µM. It also gave a TGI [40] of 25.8 µM, a TGI [41] of 31.8 µM and a TGI [42] of 26.6 µM. For the same molecule, the TGI [43] was 19.5 µM, the TGI [44] was 34.6 µM and the TGI [45] was 28.5 µM. The TGI [46] was 29 µM, the TGI [47] was 35.6 µM and the TGI [48] was 24.6 µM. It also gave a TGI [49] of 27.6 µM, a TGI [50] of 22 µM and a TGI [51] of 33.3 µM. The TGI [52] was 31.5 µM, the TGI [53] was 26.7 µM and the TGI [54] was 29.1 µM. For the same molecule, the TGI [55] was 30.8 µM and the TGI [56] was 28.3 µM.
